In patent US11547957B2, “Method of maintaining narrow residence time distributions in continuous flow systems” (EMD Millipore Corporation, priority 2017, dated 2023):

System: Phi6 bacteriophage virus
Assay: Static detergent-based virus inactivation, infectivity by plaque assay
Format: cell-based
Settings: mAb 15 mg/mL, 22-25° C.; for Time to Complete Inactivation: Phi6
Method: The purpose of this study was to examine detergent-based virus inactivation kinetics. In this representative experiment, two different concentrations (0.1% and 1.0% v/v) of a detergent, Triton X-100 were used to inactivate a bacteriophage virus, Phi6. The objective was to determine the exposure time required for complete inactivation.
A monoclonal antibody was purified by standard Protein A chromatography and prepared at a concentration of 15 mg/mL. The virus spike was added and vortexed to ensure a well-mixed system. The Phi6 target spike level was 1×10^8 pfu/mL. Detergent was added to reach the desired concentrations of 0.1% and 1.0% v/v. At various time points, a sample was removed and quenched by adding it to buffer at a 1:1000 dilution ratio. The tubes were vortexed after the detergent addition. These experiments were carried out at room temperature, 22-25° C. Control samples at the initial and final time points were also analyzed. The control samples were diluted similarly to the actual samples using the background buffer.

## Triton X-100
0.1% v/v Triton X-100
  Time to Complete Inactivation: ≤1 min
0.1% v/v Triton X-100, listed as Triton X100
  Time to Complete Inactivation: ≤ 1 min
0.1% v/v Triton X-100, inactivation time 1 min
  Phi6 LRV: ≥5.2
0.1% v/v Triton X-100, inactivation time 2 min
  Phi6 LRV: ≥5.2
0.1% v/v Triton X-100, inactivation time 3 min
  Phi6 LRV: ≥5.2
0.1% v/v Triton X-100, inactivation time 4 min
  Phi6 LRV: ≥5.2
0.1% v/v Triton X-100, inactivation time 5 min
  Phi6 LRV: ≥5.2
0.1% v/v Triton X-100, inactivation time 15 min
  Phi6 LRV: ≥5.2
0.1% v/v Triton X-100, inactivation time 30 min
  Phi6 LRV: ≥5.2
1.0% v/v Triton X-100
  Time to Complete Inactivation: ≤1 min
1.0% v/v Triton X-100, listed as Triton X100
  Time to Complete Inactivation: ≤ 1 min
1.0% v/v Triton X-100, inactivation time 1 min
  Phi6 LRV: ≥6.2
1.0% v/v Triton X-100, inactivation time 2 min
  Phi6 LRV: ≥6.2
1.0% v/v Triton X-100, inactivation time 3 min
  Phi6 LRV: ≥6.2
1.0% v/v Triton X-100, inactivation time 4 min
  Phi6 LRV: ≥6.2
1.0% v/v Triton X-100, inactivation time 5 min
  Phi6 LRV: ≥6.2
1.0% v/v Triton X-100, inactivation time 15 min
  Phi6 LRV: ≥6.2
1.0% v/v Triton X-100, inactivation time 30 min
  Phi6 LRV: ≥6.2
